Experiments:
[1] = tested on: TrkB; experiment: TrkB phosphorylation assay: potentiation of BDNF-induced TrkB phosphorylation in cortical neurons; type: cell-based; conditions: potentation at a PAM concentration of 10 nM of 0.4 nM BDNF-induced TrkB phosphorylation in cortical neurons
Text: It is meant by “positive allosteric modulator” (PAM), also known as allosteric enhancer or potentiator, a compound that induces an amplification of the effect of receptor's response to the primary ligand without directly activating the receptor. Within this invention, PAM TrkB activity is related to the potentation of BDNF effects on the functional activity of the TrkB receptor, measured in vitro or in vivo by mean of a specific TrkB receptor phosphorylation assay.
In Vitro Activity of LIT-TB Derivatives in a TrkB Phosphorylation Assay

[2] = tested on: 45 kinases; experiment: Kinome profile (ExpresS Diversity Kinase Panel, TR-FRET LANCE); type: biochemical; conditions: 10 μM
Experimental: FIG. 2 represents the […] inhibition of the catalytic activity of 45 kinases (ExpresS Diversity Kinase Panel, Eurofins Discovey, item # P10) by LIT-TB001 at a concentration of 10 μM. For each kinase, the effect of the compound on the ATP-induced kinase-mediated substrate phosphorylation is measured by the TR-FRET LANCE technology.
A kinome profile was next performed to test LIT-TB001 selectivity toward other kinases.

[3] = molecular target: TrkB (Homo sapiens, UniProt Q16620); conditions: PC12-TrkB cells, BDNF 1 nM
Chain of TrkB (Homo sapiens, UniProt Q16620) (Q16620 32-822, species assumed): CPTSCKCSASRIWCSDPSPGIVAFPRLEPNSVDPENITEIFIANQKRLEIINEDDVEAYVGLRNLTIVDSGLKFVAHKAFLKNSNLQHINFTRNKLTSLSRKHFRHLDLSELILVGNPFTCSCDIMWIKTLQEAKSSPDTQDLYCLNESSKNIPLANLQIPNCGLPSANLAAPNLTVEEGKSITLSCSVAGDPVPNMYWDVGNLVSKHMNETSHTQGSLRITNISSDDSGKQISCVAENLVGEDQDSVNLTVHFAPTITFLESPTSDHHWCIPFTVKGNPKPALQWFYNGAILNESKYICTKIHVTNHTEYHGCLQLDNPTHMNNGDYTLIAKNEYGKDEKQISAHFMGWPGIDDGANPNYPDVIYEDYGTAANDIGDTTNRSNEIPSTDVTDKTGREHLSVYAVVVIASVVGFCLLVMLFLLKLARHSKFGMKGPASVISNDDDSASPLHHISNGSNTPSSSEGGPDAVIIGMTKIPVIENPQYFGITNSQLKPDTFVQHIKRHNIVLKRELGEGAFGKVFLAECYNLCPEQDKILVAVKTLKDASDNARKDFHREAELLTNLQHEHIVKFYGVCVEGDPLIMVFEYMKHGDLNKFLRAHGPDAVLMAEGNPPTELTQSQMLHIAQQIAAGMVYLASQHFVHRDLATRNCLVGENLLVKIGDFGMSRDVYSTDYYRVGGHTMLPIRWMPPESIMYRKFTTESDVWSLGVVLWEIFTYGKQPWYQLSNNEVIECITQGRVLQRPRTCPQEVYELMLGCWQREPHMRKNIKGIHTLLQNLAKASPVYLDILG
Experimental: (§1) Nnr5 PC12-TrkA and nnr5 PC12-TrkB cells are NGF-nonresponding mutant PC12 cells stably transfected with TrkA and TrkB, respectively. Activation of TrkA and TrkB was assessed in nnr5 PC12-TrkB or -TrkA cells by quantifying the level of phospho-Trk at Tyrosine 706 (Y706) after addition of BDNF (1 nM) or NGF (2 nM), respectively, for 15 min in presence or absence of TB001 at various concentrations (0.1, 10 and […]), as previously done. Activation of downstream signaling pathway was assessed by quantifying phospho-ERK in the same cells. Neurite outgrowth was determined by counting the number the number of cells bearing neurites longer than 2 cells in diameter, 48 hours after initial treatment, as described earlier.
(§2) Selectivity of LIT-TB001 toward signaling activation and biological function was tested in PC12-TrkB or PC12-TrkA cells, in presence of BDNF (TrkB) or NGF (TrkA). Key experiments were recapitulated in either TrkA or TrkB-expressing cells to test for TB selectivity: Trk phosphorylation, ERK phosphorylation and neurite outgrowth (FIG. 1).

[4] = molecular target: TrkA (Homo sapiens, UniProt P04629); conditions: PC12-TrkA cells, presence or absence of NGF (2 nM)
Chain of TrkA (P04629 33-796, species assumed): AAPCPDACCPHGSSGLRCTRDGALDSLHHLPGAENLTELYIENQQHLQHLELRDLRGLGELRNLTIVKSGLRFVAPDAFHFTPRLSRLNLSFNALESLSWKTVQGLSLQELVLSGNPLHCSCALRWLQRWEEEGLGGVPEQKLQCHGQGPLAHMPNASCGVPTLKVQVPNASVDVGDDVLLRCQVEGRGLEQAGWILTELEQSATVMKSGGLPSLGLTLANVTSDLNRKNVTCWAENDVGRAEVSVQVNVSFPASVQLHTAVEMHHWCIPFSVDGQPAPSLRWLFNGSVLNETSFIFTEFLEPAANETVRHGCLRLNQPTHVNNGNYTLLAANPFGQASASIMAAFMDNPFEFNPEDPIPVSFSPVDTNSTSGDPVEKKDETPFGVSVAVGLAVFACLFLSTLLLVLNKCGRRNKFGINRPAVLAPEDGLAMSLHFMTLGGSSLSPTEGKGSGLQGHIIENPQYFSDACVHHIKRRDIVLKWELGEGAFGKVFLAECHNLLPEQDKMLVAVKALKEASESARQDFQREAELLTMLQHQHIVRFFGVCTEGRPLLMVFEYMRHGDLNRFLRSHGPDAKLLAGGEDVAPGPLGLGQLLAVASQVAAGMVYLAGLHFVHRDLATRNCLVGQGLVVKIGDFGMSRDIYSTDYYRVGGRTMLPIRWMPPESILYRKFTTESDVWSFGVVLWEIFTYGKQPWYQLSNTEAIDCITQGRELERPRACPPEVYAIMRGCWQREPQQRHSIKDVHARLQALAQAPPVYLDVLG
Experimental: as §1, §2

[5] = tested on: PC12-TrkB cells; conditions: BDNF, 48 hours
Experimental: as §1, §2

[6] = molecular target: TrkB (Mus musculus, UniProt P15209); conditions: C57BL/6 male mice, 0.5 and 1 mg/kg i.p., 1 h, cortex and hippocampus, western blot
Chain of TrkB (Mus musculus, UniProt P15209) (P15209 32-821): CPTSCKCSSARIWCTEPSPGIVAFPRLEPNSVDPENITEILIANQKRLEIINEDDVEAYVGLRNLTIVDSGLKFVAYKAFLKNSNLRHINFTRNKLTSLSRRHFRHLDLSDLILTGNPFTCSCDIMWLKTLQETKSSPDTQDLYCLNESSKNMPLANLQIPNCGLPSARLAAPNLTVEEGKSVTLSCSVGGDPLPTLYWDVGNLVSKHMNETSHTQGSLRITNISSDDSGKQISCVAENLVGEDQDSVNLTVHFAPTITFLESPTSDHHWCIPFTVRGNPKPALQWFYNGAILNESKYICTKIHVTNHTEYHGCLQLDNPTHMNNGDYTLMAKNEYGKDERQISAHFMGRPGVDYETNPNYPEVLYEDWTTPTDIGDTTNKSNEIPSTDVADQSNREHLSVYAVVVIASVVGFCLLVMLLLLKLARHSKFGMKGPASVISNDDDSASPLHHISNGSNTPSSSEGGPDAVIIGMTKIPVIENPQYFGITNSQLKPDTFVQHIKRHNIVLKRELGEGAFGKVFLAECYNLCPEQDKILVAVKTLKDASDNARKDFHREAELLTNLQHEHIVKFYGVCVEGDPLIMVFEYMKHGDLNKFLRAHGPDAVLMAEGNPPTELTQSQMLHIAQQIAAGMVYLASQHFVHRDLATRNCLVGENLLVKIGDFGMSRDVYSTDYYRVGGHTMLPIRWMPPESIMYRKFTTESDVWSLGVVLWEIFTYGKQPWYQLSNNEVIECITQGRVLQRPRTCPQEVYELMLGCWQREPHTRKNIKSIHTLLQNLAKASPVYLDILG
Experimental: After 1 hour (unless indicated otherwise), mice were decapitated, blood was collected and brains were rapidly removed on ice. […] The Anti-TrkB antibody is used to quantify the total amount of TrkB. Anti-tubulin is used as a loading control. […] Phosphorylated levels of TrkB are calculated as a ratio between phospho and total TrkB bands in each region
A volume of 10 μl/g body weight was injected. After 1 hour (unless indicated otherwise), mice were decapitated, blood was collected and brains were rapidly removed on ice. Cortex and hippocampus were subsequently dissected and tissues were rapidly washed in ice-cold PBS and transferred into ice-cold solubilization buffer before homogenization at 4° C. Samples were centrifuged at 10,000×g for 10 min at 4° C. Protein concentrations were determined, equal amounts of proteins were loaded, and western blots were performed as described above.
C57Bl6 male mice received an i.p injection of 0.5 and 1 mg/kg for 1 hour before their brain was carefully removed and their cortex and hippocampus were sub-dissected. […] The level of TrkB phosphorylation at Tyrosine 816 was analyzed by western blot (FIG. 3).

CN1CCN(c2ccc3nnc(CCC(=O)NC4CCN(Cc5ccccc5)CC4)n3n2)CC1 [LIT-TB001, N-(1-benzylpiperidin-4-yl)-3-[6-(4-methylpiperazin-1-yl)-[1,2,4]triazolo[4,3-b]pyridazin-3-yl] propanamide]
PAM TrkB activity [1]: +++ (+++: >35%)
effect on catalytic activity of 45 kinases (among them TrkA) [2]: does not activate neither block the catalytic activity of the tested kinases
phosphorylation of ERK [3]: induced only in the presence of BDNF
phosphorylation of TrkB ([3]; 15 min): induced only in the presence of BDNF
phosphorylation of ERK [4]: did not induce phosphorylation of ERK or TrkA
phosphorylation of TrkA [4]: did not induce phosphorylation of ERK or TrkA
neurite outgrowth [5]: potentiates BDNF-
TrkB activation (phospho-TrkB/total TrkB) in the brain [6]: efficiently increases TrkB activation in the brain

CN1CCN(c2ccc3nnc(CCC(=O)NC4CCN(Cc5ccc(Cl)c(Cl)c5)CC4)n3n2)CC1 [LIT-TB026, N-{1-[(3,4-dichlorophenyl)methyl]piperidin-4-yl}-3-[6-(4-methylpiperazin-1-yl)-[1,2,4]triazolo[4,3-b]pyridazin-3-yl]propanamide]
PAM TrkB activity [1]: + (+: <20%)

COc1ccc(CN2CCC(NC(=O)CCc3nnc4ccc(N5CCN(C)CC5)nn34)CC2)cc1 [LIT-TB017, N-{1-[(4-methoxyphenyl)methyl]piperidin-4-yl}-3-[6-(4-methylpiperazin-1-yl)-[1,2,4]triazolo [4,3-b]pyridazin-3-yl]propanamide]
PAM TrkB activity [1]: +++ (+++: >35%)

O=C(CCc1nnc2ccc(N3CCCCC3)nn12)NC1CCN(Cc2ccccc2)CC1 [LIT-TB002, N-(1-benzylpiperidin-4-yl)-3-[6-(piperidin-1-yl)-[1,2,4]triazolo[4,3-b]pyridazin-3-yl]propanamide]
PAM TrkB activity [1]: ++ (++: 20-35%)

COc1ccc(CN2CC[C@@H](NC(=O)CCc3nnc4ccc(N5CCN(C)CC5)nn34)[C@H](F)C2)cc1 [LIT-TB053, N-[(3R,4R)-3-fluoro-1-[(4-methoxyphenyl)methyl]piperidin-4-yl]-3-[6-(4-methylpiperazin-1-yl)-[1,2,4]triazolo[4,3-b]pyridazin-3-yl]propanamide]
PAM TrkB activity [1]: ++ (++: 20-35%)
